From ChEMBL document CHEMBL1955862, “Novel N'-benzylidene benzofuran-3-carbohydrazide derivatives as antitubercular and antifungal agents” (2012) come the findings set out here.

Values after ≈ are worked out from the molar mass of the structure shown.

In general, MIC refers to the smallest concentration in the dilution series that meets the test's criterion for growth inhibition. Higher therefore signals a less susceptible organism.

The subject of assay [1] is Mycobacterium tuberculosis. The experiment in a line: Antituberculosis activity against Mycobacterium tuberculosis H37Rv by REMA method. The format is functional.
The test system of another assay is Candida albicans. Kind of assay: Antifungal activity against Candida albicans. The class given is functional.

For `O=C(N/N=C/c1ccccc1)c1coc2ccccc12`, the MIC in assay [1] was 2 µg/mL (≈ 7.57 µM); against Candida albicans, > 250 µg/mL.
Take `COc1ccc(/C=N/NC(=O)c2coc3ccccc23)c(OC)c1`: the MIC in assay [1] is 128 µg/mL (≈ 395 µM); in the assay with Candida albicans, > 250 µg/mL.
Consider `O=C(N/N=C/c1ccc(O)cc1)c1coc2ccccc12`, for which the MIC in assay [1] is 64 µg/mL (≈ 228 µM); against Candida albicans it was > 250 µg/mL.
For `O=C(N/N=C/c1ccccc1O)c1coc2ccccc12`, the MIC in assay [1] is 64 µg/mL (≈ 228 µM); in the assay on Candida albicans it was > 250 µg/mL.
`O=C(N/N=C/c1ccc(Cl)cc1)c1coc2ccccc12`: the MIC is 128 µg/mL (≈ 428 µM) in assay [1] and > 250 µg/mL against Candida albicans.
Consider `Cc1ccc(/C=N/NC(=O)c2coc3ccccc23)cc1`, for which the MIC in assay [1] is 128 µg/mL (≈ 460 µM); in the assay on Candida albicans, > 250 µg/mL.
On to `O=C(N/N=C/c1ccc([N+](=O)[O-])cc1)c1coc2ccccc12`, for which the MIC in assay [1] is 128 µg/mL (≈ 414 µM); in the assay with Candida albicans, > 250 µg/mL.
Turning to `O=C(N/N=C/c1cc(Cl)cc(Cl)c1O)c1coc2ccccc12`, the MIC in assay [1] amounted to 128 µg/mL (≈ 367 µM); in the assay with Candida albicans, 31.2 µg/mL (≈ 89.5 µM).
For the compound `O=C(N/N=C/c1cccc2ccccc12)c1coc2ccccc12`, the MIC in assay [1] was 128 µg/mL (≈ 407 µM); with Candida albicans, 125 µg/mL (≈ 398 µM).
On to `O=C(N/N=C/c1c(Cl)cccc1Cl)c1coc2ccccc12`, for which the figures for the MIC (in assay [1]; in the assay with Candida albicans) were 128 µg/mL (≈ 384 µM) and > 250 µg/mL, respectively.
Consider `O=C(N/N=C/c1ccccc1)c1coc2c(Cl)cc(Cl)cc12`, for which the MIC was 2 µg/mL (≈ 6 µM) in assay [1] and > 250 µg/mL in the assay on Candida albicans.
Turning to `COc1ccc(/C=N/NC(=O)c2coc3c(Cl)cc(Cl)cc23)c(OC)c1`, the minimum inhibitory concentration (MIC) is 64 µg/mL (≈ 163 µM) in assay [1] and > 250 µg/mL against Candida albicans.
As to `O=C(N/N=C/c1ccc(O)cc1)c1coc2c(Cl)cc(Cl)cc12`, the results for the minimum inhibitory concentration (MIC) (in assay [1]; in the assay on Candida albicans) were 128 µg/mL (≈ 367 µM) and > 250 µg/mL, respectively.
On to `O=C(N/N=C/c1ccccc1O)c1coc2c(Cl)cc(Cl)cc12`, for which the MIC in assay [1] is 32 µg/mL (≈ 91.6 µM); in the assay with Candida albicans, > 250 µg/mL.
`O=C(N/N=C/c1ccc(Cl)cc1)c1coc2c(Cl)cc(Cl)cc12`: the MIC in assay [1] is 128 µg/mL (≈ 348 µM); against Candida albicans, > 250 µg/mL.
For `Cc1ccc(/C=N/NC(=O)c2coc3c(Cl)cc(Cl)cc23)cc1`, in that order: 128 µg/mL (≈ 369 µM) and < 15.6 µg/mL.
Consider `O=C(N/N=C/c1ccc([N+](=O)[O-])cc1)c1coc2c(Cl)cc(Cl)cc12`, for which the values for the MIC (in assay [1]; against Candida albicans) were 128 µg/mL (≈ 338 µM) and 125 µg/mL (≈ 331 µM), respectively.
For the compound `O=C(N/N=C/c1cc(Cl)cc(Cl)c1O)c1coc2c(Cl)cc(Cl)cc12`, the MIC in assay [1] was 128 µg/mL (≈ 306 µM); in the assay with Candida albicans, 250 µg/mL (≈ 598 µM).
In the case of `O=C(N/N=C/c1cccc2ccccc12)c1coc2c(Cl)cc(Cl)cc12`, the results for the MIC (in assay [1]; in the assay on Candida albicans) were 128 µg/mL (≈ 334 µM) and < 15.6 µg/mL, respectively.
Regarding `O=C(N/N=C/c1c(Cl)cccc1Cl)c1coc2c(Cl)cc(Cl)cc12`, the MIC was determined as 128 µg/mL (≈ 318 µM) in assay [1] and 62.5 µg/mL (≈ 155 µM) against Candida albicans.
In assay [1], `NNC(=O)c1ccncc1` [ISONIAZID] displayed an MIC of 0.25 µg/mL (≈ 1.82 µM).
